Experimental data from US20230100838A1 (Revolution Medicines, Inc., priority 2019, published 2023).

What was measured:
Type in all cases: binding
[1] = molecular target: T1, GDP-loaded K-Ras (1-169) G12D, C51S, C80L, C118S (Homo sapiens, UniProt P01116, C118S/C51S/C80L/G12D); assay: K-Ras G12D(GDP) cross-linking assay (conjugate formation, TOF mass spectrometry); parameters: key: 0: No observed x-linking; +: 0 < x ≤ 20; ++: 20 < x ≤ 40; +++: 40 < x ≤ 100; conditions: percent covalently modified K-Ras by MS, room temperature, typical compound conc. 2, 10, 25 μM, endpoints 1 and 24 h
T1 construct: GDP-loaded K-Ras (1-169) G12D, C51S, C80L, C118S
How it was run: (§1)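 5 μM protein (final, from 50 μM) in HEPES/NaCl/MgCl2 buffer pH 7.4 with compound typically at 2, 10 and 25 μM, room temperature, 1 and 24 h endpoints; formic acid quench. Intact-protein LC–TOF MS; percent modification is covalent adduct peak height over total K-Ras peak height.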

[2] = molecular target: T2, GDP-loaded K-Ras (1-169) C51S, C80L, C118S (Homo sapiens, UniProt P01116, C118S/C51S/C80L); assay: K-Ras WT (GDP) cross-linking assay (conjugate formation, TOF mass spectrometry); parameters: key: 0: No observed x-linking; +: 0 < x ≤ 20; ++: 20 < x ≤ 40; +++: 40 < x ≤ 100; conditions: percent covalently modified K-Ras by MS, room temperature, typical compound conc. 2, 10, 25 μM, endpoints 1 and 24 h
T2 construct: GDP-loaded K-Ras (1-169) C51S, C80L, C118S
How it was run: as §1

K-Ras G12S = K-Ras G12S (Homo sapiens, UniProt P01116, G12S); assay: K-Ras G12S cross-linking assay (comparable procedure, conjugate formation, TOF mass spectrometry); parameters: key: 0: No observed x-linking
How it was run: as §1

[3] = Table 4, percent covalently modified K-Ras by MS
[4] = Table 5, percent covalently modified K-Ras by MS

| SMILES | G12D x-linking (%) ([1]; Table 4) | WT x-linking (%) ([2]; Table 4) | G12S x-linking (%) (K-Ras G12S; [3]) | G12D x-linking (%) ([1]; Table 5) | WT x-linking (%) ([2]; Table 5) | G12S x-linking (%) (K-Ras G12S; [4]) |
| --- | --- | --- | --- | --- | --- | --- |
| Cc1cccc2cccc(N3CCc4c(nc(OC[C@@H]5CCCN5C)nc4N4CCC(N=C=NCc5ccc(Cl)cc5)CC4)C3)c12 [Example 49, N-(4-chlorobenzyl)-N-(1-(7-(8-methylnaphthalen-1-yl)-2-(((S)-1-methylpyrrolidin-2-yl)methoxy)-5,6,7,8-tetrahydropyrido[3,4-d]pyrimidin-4-yl)piperidin-4-yl)methanediimine] | + (0 < x ≤ 20) | + (0 < x ≤ 20) | + (0 < x ≤ 10) |  |  |  |
| Cc1cccc2cccc(N3CCc4c(nc(OC[C@@H]5CCCN5C)nc4N4CCC(N=C=NC(C)C)CC4)C3)c12 [Example 23, N-isopropyl-N-(1-(7-(8-methylnaphthalen-1-yl)-2-(((S)-1-methylpyrrolidin-2-yl)methoxy)-5,6,7,8-tetrahydropyrido[3,4-d]pyrimidin-4-yl)piperidin-4-yl)methanediimine] | ++ (20 < x ≤ 40) | + (0 < x ≤ 20) | ++ (10 < x ≤ 100) |  |  |  |
| CN=C=NCCN(C)c1ncnc2c(F)c(-c3ccccc3F)c(Cl)cc12 [Example 9, 6-chloro-8-fluoro-7-(2-fluorophenyl)-N-methyl-N-(2-(((methylimino)methylene)amino)ethyl)quinazolin-4-amine] | + (0 < x ≤ 20) | + (0 < x ≤ 20) | + (0 < x ≤ 10) |  |  |  |
| COCCN=C=NCC1CCN(c2nc(OC[C@@H]3CCCN3C)nc3c2CCN(c2cccc4cccc(C)c24)C3)CC1 [Example 77, N-(2-methoxyethyl)-N-((1-(7-(8-methylnaphthalen-1-yl)-2-(((S)-1-methylpyrrolidin-2-yl)methoxy)-5,6,7,8-tetrahydropyrido[3,4-d]pyrimidin-4-yl)piperidin-4-yl)methyl)methanediimine] |  |  |  | +++ (40 < x ≤ 100) | ++ (20 < x ≤ 100) | ++ (10 < x ≤ 100) |
| COc1ccc(CN=C=NC2CCN(c3nc(OC[C@@H]4CCCN4C)nc4c3CCN(c3cccc5cccc(C)c35)C4)CC2)c(OC)c1 [Example 82, N-(2,4-dimethoxybenzyl)-N-(1-(7-(8-methylnaphthalen-1-yl)-2-(((S)-1-methylpyrrolidin-2-yl)methoxy)-5,6,7,8-tetrahydropyrido[3,4-d]pyrimidin-4-yl)piperidin-4-yl)methanediimine] |  |  |  | + (0 < x ≤ 20) | + (0 < x ≤ 20) | + (0 < x ≤ 10) |
| COCCN=C=N[C@@H]1CCN(c2nc(OC[C@@H]3CCCN3C)nc3c2CCN(c2cccc4cccc(C)c24)C3)C1 [Example 73, N-(2-methoxyethyl)-N—((R)-1-(7-(8-methylnaphthalen-1-yl)-2-(((S)-1-methylpyrrolidin-2-yl)methoxy)-5,6,7,8-tetrahydropyrido[3,4-d]pyrimidin-4-yl)pyrrolidin-3-yl)methanediimine] |  |  |  | +++ (40 < x ≤ 100) | ++ (20 < x ≤ 100) | ++ (10 < x ≤ 100) |
| Cc1cccc2cccc(N3CCc4c(nc(OC[C@@H]5CCCN5C)nc4NCCNC(=O)NCCCl)C3)c12 [Example 36, (S)-1-(2-chloroethyl)-3-(2-((7-(8-methylnaphthalen-1-yl)-2-((1-methylpyrrolidin-2-yl)methoxy)-5,6,7,8-tetrahydropyrido[3,4-d]pyrimidin-4-yl)amino)ethyl)urea] | + (0 < x ≤ 20) | + (0 < x ≤ 20) | + (0 < x ≤ 10) |  |  |  |
| Cc1cccc2cccc(N3CCc4c(nc(OC[C@@H]5CCCN5C)nc4N4CCC(N=C=NCCc5cccs5)CC4)C3)c12 [Example 95, N-(1-(7-(8-methylnaphthalen-1-yl)-2-(((S)-1-methylpyrrolidin-2-yl)methoxy)-5,6,7,8-tetrahydropyrido[3,4-d]pyrimidin-4-yl)piperidin-4-yl)-N-(2-(thiophen-2-yl)ethyl)methanediimine] |  |  |  | + (0 < x ≤ 20) | + (0 < x ≤ 20) | + (0 < x ≤ 10) |
| Cc1cccc2cccc(N3CCc4c(nc(OC[C@@H]5CCCN5C)nc4N4CCC(N=C=NCCCN5CCOCC5)CC4)C3)c12 [Example 85, N-(1-(7-(8-methylnaphthalen-1-yl)-2-(((S)-1-methylpyrrolidin-2-yl)methoxy)-5,6,7,8-tetrahydropyrido[3,4-d]pyrimidin-4-yl)piperidin-4-yl)-N-(3-morpholinopropyl)methanediimine] |  |  |  | +++ (40 < x ≤ 100) | ++ (20 < x ≤ 100) | ++ (10 < x ≤ 100) |
| Cc1cccc2cccc(N3CCc4c(nc(OC[C@@H]5CCCN5C)nc4N4CCC(N=C=NCCCN(C)c5ccccn5)CC4)C3)c12 [Example 91, N-methyl-N-(3-((((1-(7-(8-methylnaphthalen-1-yl)-2-(((S)-1-methylpyrrolidin-2-yl)methoxy)-5,6,7,8-tetrahydropyrido[3,4-d]pyrimidin-4-yl)piperidin-4-yl)imino)methylene)amino)propyl)pyridin-2-amine] |  |  |  | ++ (20 < x ≤ 40) | + (0 < x ≤ 20) | + (0 < x ≤ 10) |
| Cc1cccc2cccc(N3CCc4c(nc(OC[C@@H]5CCCN5C)nc4N(C)CCCN=C=NCc4ccc(Cl)cc4)C3)c12 [Example 32, N-(3-((((4-chlorobenzyl)imino)methylene)amino)propyl)-N-methyl-7-(8-methylnaphthalen-1-yl)-2-(((S)-1-methylpyrrolidin-2-yl)methoxy)-5,6,7,8-tetrahydropyrido[3,4-d]pyrimidin-4-amine] | + (0 < x ≤ 20) | + (0 < x ≤ 20) | + (0 < x ≤ 10) |  |  |  |
| Cc1cccc2cccc(N3CCc4c(nc(OC[C@@H]5CCCN5C)nc4N4CCC(N=C=Nc5ccccc5)CC4)C3)c12 [Example 48, N-(1-(7-(8-methylnaphthalen-1-yl)-2-(((S)-1-methylpyrrolidin-2-yl)methoxy)-5,6,7,8-tetrahydropyrido[3,4-d]pyrimidin-4-yl)piperidin-4-yl)-N-phenylmethanediimine] | + (0 < x ≤ 20) | + (0 < x ≤ 20) | + (0 < x ≤ 10) |  |  |  |
| Cc1ccnc(C(C)C)c1-n1c(=O)nc(N2CCC(CN=C=NCc3ccccc3)CC2)c2cc(F)c(-c3ccccc3F)nc21 [Example 69, 4-(4-((((benzylimino)methylene)amino)methyl)piperidin-1-yl)-6-fluoro-7-(2-fluorophenyl)-1-(2-isopropyl-4-methylpyridin-3-yl)pyrido[2,3-d]pyrimidin-2(1H)-one] |  |  |  | + (0 < x ≤ 20) | + (0 < x ≤ 20) | + (0 < x ≤ 10) |
| Cc1cccc2cccc(N3CCc4c(nc(OC[C@@H]5CCCN5C)nc4N4CCN(C5=NCCO5)CC4)C3)c12 [Example 39] | 0 | 0 | 0 |  |  |  |
| O=C(NCCCl)NCCNc1ncnc2c(F)c(-c3ccccc3F)c(Cl)cc12 [Example 12, 1-(2-((6-chloro-8-fluoro-7-(2-fluorophenyl)quinazolin-4-yl)amino)ethyl)-3-(2-chloroethyl)urea] | 0 | 0 | 0 |  |  |  |
| COCCN=C=N[C@H]1CCN(c2nc(OC[C@@H]3CCCN3C)nc3c2CCN(c2cccc4cccc(C)c24)C3)C1 [Example 74, N-(2-methoxyethyl)-N—((S)-1-(7-(8-methylnaphthalen-1-yl)-2-(((S)-1-methylpyrrolidin-2-yl)methoxy)-5,6,7,8-tetrahydropyrido[3,4-d]pyrimidin-4-yl)pyrrolidin-3-yl)methanediimine] |  |  |  | +++ (40 < x ≤ 100) | ++ (20 < x ≤ 100) | ++ (10 < x ≤ 100) |
| OB(O)C1CCN(c2ncnc3c(F)c(-c4ccccc4F)c(Cl)cc23)CC1 [Example 19, (1-(6-chloro-8-fluoro-7-(2-fluorophenyl)quinazolin-4-yl)piperidin-4-yl)boronic Acid] | 0 | 0 | 0 |  |  |  |
| Cc1ccnc(C(C)C)c1-n1c(=O)nc(N(C)CCCN=C=NCc2ccccc2)c2cc(F)c(-c3ccccc3F)nc21 [Example 57] | ++ (20 < x ≤ 40) | + (0 < x ≤ 20) | ++ (10 < x ≤ 100) |  |  |  |
| Cc1cccc2cccc(N3CCc4c(nc(OC[C@@H]5CCCN5C)nc4N4CCC(N=C=NCc5ccccc5)CC4)C3)c12 [Example 24, N-benzyl-N-(1-(7-(8-methylnaphthalen-1-yl)-2-(((S)-1-methylpyrrolidin-2-yl)methoxy)-5,6,7,8-tetrahydropyrido[3,4-d]pyrimidin-4-yl)piperidin-4-yl)methanediimine] | + (0 < x ≤ 20) | + (0 < x ≤ 20) | + (0 < x ≤ 10) |  |  |  |
